Patent US20070219180A1, “Muscle Relaxtion Accelerator and Therapeutic Agent for Muscular Tissue Diseases Such as Muscle Relaxation Failure” (priority 2004, published 2007)
Values joined by “and” are separate entries in the source; they are usually repeats but may differ in a detail not shown here. Equal values may be shown once.

Key:
male Wistar rats = assay: Experiment 11: protective effect on diastolic dysfunction of the myocardium (compound given before norepinephrine); format: in vivo, rat
Protocol: This experiment was performed to examine the protective effect of the compound on left ventricular diastolic dysfunction, and the compound was administered 5 minutes before administration of the norepinephrine solution referred to in Experiment 1, in which a calcium solution and a norepinephrine solution were administered after calcium administration for 20 minutes.
In this experiment, the 1,4-benzothiazepine derivative or pharmaceutically acceptable salt thereof was used as the compound.
Eight-week old male Wistar rats weighing 310-320 g were used in the study. The rats were anesthetized with 1,000 mg/kg of urethane and 80 mg/kg of α-chloralose by subperitoneal injection under artificial respiration (SN-480-7, Shinano) using endotracheal intubation. In this experiment, 100 mg of the compound was dissolved in 1 ml of dimethylsulfoxide (DMSO) and the resulting DMSO solution of the compound was stored at 4° C. Norepinephrine solution was prepared by dissolving 1 mg of norepinephrine in 41 μl of distilled water, at an infusion speed of […].
Firstly, continuous infusion catheters of calcium chloride solution or norepinephrine solution containing calcium chloride were inserted into the right external jugular veins of the rats, microchip catheters (SPC-320, Millar) was inserted into the left ventricles via the right common arteries, and the left ventricular end-diastolic pressure was measured. In addition, test drug infusion catheters were inserted into the right femoral veins.
A 1-lead electrocardiogram and the left ventricular pressure were recorded simultaneously on a personal computer via an A/D converter. The left ventricular diastolic pressure was determined as the mean of data measured over 20 heart beats every 5 minutes, when the pressure equivalent to the R wave of the electrocardiogram was defined as the left ventricular diastolic pressure. In the preparation step, blood pressure, pulse, and electrocardiogram of the rats were monitored for 15 minutes and allowed to stabilize, and then 5% dextrose solution containing calcium chloride (at a concentration based on the weight of the rat) was infused into the right external jugular vein for 20 minutes at 16.6 μl/min (12.0 mg/kg/min of calcium chloride).
Secondly, a norepinephrine solution containing calcium chloride without a change in dosage was immediately injected at a rate of 30 μg/kg/min via the right external jugular vein. After the start of administration, calcium chloride and norepinephrine were then continuously injected in the form of a norepinephrine solution containing calcium chloride. With continuous injection of calcium chloride and norepinephrine (in the form of a norepinephrine solution containing calcium chloride) via the right external jugular vein, 0.2 ml of 1% DMSO solution of the solvent used for the test compound was administered over 30 seconds to a rat (weight: 310 g, Control; this animal was not administered the compound) via the right femoral vein, 5 minutes before commencement of injection (intravenous injection) of calcium chloride and norepinephrine (in the form of a norepinephrine solution containing calcium chloride) via the right external jugular vein.
Similarly to the Control, with continuous injection of calcium chloride and norepinephrine (in the form of a norepinephrine solution containing calcium chloride) via the right external jugular vein, 0.2 ml of a 1% DMSO solution containing 0.3 mg/kg of the compound was administered over 30 seconds to a rat (weight: 320 g, defined as Test 14) via the right femoral vein, 5 minutes before commencement of injection (intravenous injection) via the right external jugular vein of calcium chloride and norepinephrine. Furthermore, in this experiment, after the test drug was injected over 30 seconds, a 1:10 dilution of the injected test drug was additionally administered at 10 μl/min from commencement of test drug injection to 15 minutes after the start of administration. […]

white rabbits = assay: Experiment 10: effect of the compound on cardiac rate and PQ interval on the electrocardiogram; format: in vivo, rabbit; details: for Cardiac rate: listed as the test compound; for Cardiac rate relative to before administration (100%) / PQ interval relative to before administration (100%): before administration (defined as 100%)
Protocol: In this experiment, the 1-hydrochloride of the compound, 4-[3-(4-benzylpiperidin-1-yl)propionyl]-7-methoxy-2,3,4,5-tetrahydro-1,4-benzothiazepine 1-hydrochloride (hereinafter called the compound) was used as the 1,4-benzothiazepine derivative or pharmaceutically acceptable salt thereof.
Five white rabbits (weight: 2.7-2.9 kg) were used in this experiment: a rabbit (weight 2.8 kg, Control 1) that was administered control solution, a rabbit (weight 2.7 kg, Test 10) that received the compound at 0.04 mg/kg/min, a rabbit (weight 2.7 kg, Test 11) that received the compound at 0.04 mg/kg/min, a rabbit (weight 2.9 kg, Test 12) that received the compound at 0.4 mg/kg/min, and a rabbit (weight 2.8 kg, Test 13) that received the compound at 0.4 mg/kg/min.
Each rabbit was anesthetized with a single intravenous injection of 20 mg/kg methohexital sodium under artificial respiration (Type AR1 Narishige Group) using endotracheal intubation. Subsequently, α-chloralose was injected into the ear veins at 90 mg/kg/20 min. A DMSO solution of the compound was prepared by dissolving 100 mg of the compound in 1 ml of dimethylsulfoxide (DMSO), and stored at 4° C.
In this experiment, injection catheters for administration of the compound and other drugs were inserted into the right external jugular veins of the rabbits, and microchip catheters (SPC-320, Millar) for blood pressure measurement were inserted via the right common arteries. A 2-lead electrocardiogram was examined, and blood pressure, cardiac rate, and electrocardiogram of the rabbits were monitored for 10 minutes. When the data stabilized, the electrocardiogram, systolic pressure and diastolic pressure of each rabbit were recorded on a personal computer via an A/D converter. The Control rabbit was administered 5% dextrose solution containing 0.1% DMSO as a control solution for 10 minutes at 0.1 ml/min. Test 10 and 11 rabbits were administered 5% dextrose containing the compound at 0.1 ml/min, and then the compound at an infusion rate of 0.04 mg/kg/min. Test 12 and 13 were administered 5% dextrose containing the compound at 0.1 ml/min, and then the compound at an infusion rate of 0.4 mg/kg/min.
Cardiac rate and PQ interval in the Control and Test rabbits were measured before administration of the test solution, and 5 and 10 minutes after administration. The PQ interval, which is the time interval between the beginning of the P-wave and the beginning of next Q wave, reflects the conduction velocity of electrical stimulation from the atrium to the ventricle. The cardiac rates before administration of the test solution were defined as 100%, and data for the cardiac rate after administration of the compound are shown in Table 10.

[1] = infusion rate 0.04 mg/kg/min, after 5 minutes
[2] = infusion rate 0.04 mg/kg/min, after 10 minutes
[3] = infusion rate 0.04 mg/kg/min, before administration
[4] = infusion rate 0.4 mg/kg/min, after 5 minutes
[5] = infusion rate 0.4 mg/kg/min, after 10 minutes
[6] = infusion rate 0.4 mg/kg/min, before administration

For COc1ccc2c(c1)CN(C(=O)CCN1CCC(Cc3ccccc3)CC1)CCS2 [the compound, 4-[3-(4-benzylpiperidine-1-yl)propionyl]-7-methoxy-2,3,4,5-tetrahydro-1,4-benzothiazepine], the “left ventricular end-diastolic pressure” value (male Wistar rats; Test 14: 0.3 mg/kg i.v. over 30 s 5 min before norepinephrine, then 0.02 mg/kg/min, 25 minutes before (5 minutes before the start of CaCl2), baseline) was 7.2 mmHg, the “left ventricular end-diastolic pressure” value (male Wistar rats; Test 14: 0.3 mg/kg i.v. over 30 s then 0.02 mg/kg/min, 5 minutes after the start of test drug (just before the start of norepinephrine)) was 8.0 mmHg and the “left ventricular end-diastolic pressure” value (male Wistar rats; Test 14: 0.3 mg/kg i.v. over 30 s then 0.02 mg/kg/min, 10 minutes after the start of test drug (5 minutes after the start of norepinephrine 30 μg/kg/min)) was 14.5 mmHg. The “left ventricular end-diastolic pressure” value (male Wistar rats; Test 14: 0.3 mg/kg i.v. over 30 s then 0.02 mg/kg/min, 10 minutes before (10 minutes after the start of CaCl2), baseline) was 7.9 mmHg, the “left ventricular end-diastolic pressure” value (male Wistar rats; Test 14: 0.3 mg/kg i.v. over 30 s then 0.02 mg/kg/min, 15 minutes after the start of test drug (10 minutes after the start of norepinephrine 30 μg/kg/min)) was 18.3 mmHg and the “left ventricular end-diastolic pressure” value (male Wistar rats; Test 14: 0.3 mg/kg i.v. over 30 s then 0.02 mg/kg/min, 20 minutes before (just after the start of CaCl2), baseline) was 7.7 mmHg. For the same compound, the “left ventricular end-diastolic pressure” value (male Wistar rats; Test 14: 0.3 mg/kg i.v. over 30 s then 0.02 mg/kg/min, just before test drug (20 minutes after the start of CaCl2), baseline) was 8.1 mmHg, the “Increase of PQ interval compared to before administration” value (white rabbits; 0.4 mg/kg/min, 10 minutes after administration, Test 12 and Test 13 rabbits) was “approximately 50%” and the PQ interval (white rabbits; [1]) was 73 milliseconds and 66 milliseconds. For the same compound, the Cardiac rate (white rabbits; [1]) was 289 min⁻¹ and 283 min⁻¹, the PQ interval (white rabbits; [2]) was 74 milliseconds and 68 milliseconds and the Cardiac rate (white rabbits; [2]) was 286 min⁻¹ and 281 min⁻¹. For the same compound, the PQ interval (white rabbits; [3]) was 71 milliseconds and 64 milliseconds, the “Cardiac rate relative to before administration (100%)” value (white rabbits; infusion rate 0.04 mg/kg/min) was “(100%)” and the “PQ interval relative to before administration (100%)” value (white rabbits; infusion rate 0.04 mg/kg/min) was “(100%)”. For the same compound, the Cardiac rate (white rabbits; [3]) was 297 min⁻¹ and 286 min⁻¹, the PQ interval (white rabbits; [4]) was 92 milliseconds and 82 milliseconds and the Cardiac rate (white rabbits; [4]) was 350 min⁻¹ and 311 min⁻¹. For the same compound, the PQ interval (white rabbits; [5]) was 107 milliseconds and 103 milliseconds, the Cardiac rate (white rabbits; [5]) was 157 min⁻¹ and 98 min⁻¹ and the PQ interval (white rabbits; [6]) was 69 milliseconds and 68 milliseconds. The “Cardiac rate relative to before administration (100%)” value (white rabbits; infusion rate 0.4 mg/kg/min) was “(100%)”, the “PQ interval relative to before administration (100%)” value (white rabbits; infusion rate 0.4 mg/kg/min) was “(100%)” and the Cardiac rate (white rabbits; [6]) was 372 min⁻¹ and 327 min⁻¹.
